pIC50: −log10 of the molar value. Structures can show the parent of a compound that is named as a salt. Where two headings read alike, the source gives them in different places.
Tests used:
MCF-7 cells = assay: Cell viability assay (MTT assay), MCF-7; conditions: 0.125 to 10 μM, 48 hours; dose-dependent decrease of cell viability
Method: (§1) Cells were seeded in a 24-well microtiter plate (2×10^4 cells/well) overnight, then treated with DMSO (Control) or various concentrations of test compounds, and incubated for 48 hours. The effect of test compounds on cell growth was examined by the MTT (3-(4,5-dimethylthiazol-2-yl)-2,5-diphenyl tetrazolium bromide) assay. Briefly, 40 μl of MTT solution (2 mg/ml, Sigma Chemical Co.) was added to each well to make a final volume of 500 μl and incubated for 1 h at 37° C. The supernatant was aspirated, and the MTT-formazan crystals formed by metabolically viable cells were dissolved in 200 μl of DMSO. Finally, the absorbance at O.D. 550 nm was detected by enzyme-linked immunosorbent assay (ELISA) reader.

CT-26 tumor cells = assay: CT-26 intraperitoneal tumor model; type: in vivo, mice; conditions: for day post challenge by which all mice were dead: excipient control all dead 40 days after
Method: 30 male 6-week-old Balb/c mice, were purchased from the National Animal cancer and maintained in pressurized ventilated cage according to institutional regulations. CT-26 (1×10^6) cells were injected into peritoneal cavities at day 0. Animals were randomly assigned to anti-tumoral efficacy study (n=10). Seven days after tumor inoculation, oral administration of 5 and 10 mg/kg of I-1-b (QD for seven times) to the mice was carried out. The survival rate and body weight of the animals was monitored.

[1] = test system: Hep G2 hepatoma cancer cell line; assay: Cytotoxic activity, MTT assay, Hep G2; type: cell-based, human; conditions: 48 h, 50% growth-inhibitory effect
Method: as §1

[2] = test system: HCT-116 colon cancer cell line; assay: Cytotoxic activity, MTT assay, HCT-116; type: cell-based, human; conditions: 48 h, 50% growth-inhibitory effect, read-out: IC50 HCT116
Method: as §1

[3] = test system: HL-60 leukemia cancer cell line; assay: Cytotoxic activity, MTT assay, HL-60; type: cell-based, human; conditions: 50% growth-inhibitory effect
Method: as §1

[4] = test system: NCI-H226 non-small cell lung cancer cell line; assay: Cytotoxic activity, MTT assay, NCI-H226; type: cell-based, human; conditions: 48 h, 50% growth-inhibitory effect
Method: as §1

[5] = test system: A549 lung cancer cell line; assay: Cytotoxic activity, MTT assay, A549; type: cell-based, human; conditions: 48 h, 50% growth-inhibitory effect
Method: as §1

[6] = test system: A498 renal cancer cell line; assay: Cytotoxic activity, MTT assay, A498; type: cell-based, human; conditions: 48 h, 50% growth-inhibitory effect
Method: as §1

[7] = Homo sapiens, Table 2, HL-60 cells, 48 h, read-out: IC50

Compound	melting point	cytotoxicity against MCF-7 cells (cell viability, MTT) (MCF-7 cells)	pIC50 [3, 7]	further results
O=P(O)(O)Oc1cc(-c2ccccc2)nc2ccccc12 (as salt: phosphate) [Compound I-4-b, 2-Phenylquinolin-4-yl-phosphate]	> 300 °C			
O=P(O)(O)Oc1cc(-c2ccccc2F)nc2cc3c(cc12)OCO3 [Compound I-1-b, 2-(2′-Fluorophenyl)-6,7-methylenedioxyquinolin-4-yl-phosphate]		significant cytotoxicity		average life span prolonged by (CT-26 tumor cells; 5 mg/kg/day QD×7): 120%; day post challenge by which all mice were dead (CT-26 tumor cells; 5 mg/kg/day QD×7): ≤ 45 days; average life span prolonged by (CT-26 tumor cells; 10 mg/kg/day QD×7): 140%; day post challenge by which all mice were dead (CT-26 tumor cells; 10 mg/kg/day QD×7): ≤ 50 days; maximally tolerated dose (CT-26 tumor cells; Balb/c mice, oral, up to 10 mg/kg/day QD×7): not achieved
O=P(O)(O)Oc1cc(-c2cccc(F)c2)nc2cc3c(cc12)OCO3 [Compound I-2-b, 2-(3′-Fluorophenyl)-6,7-methylenedioxyquinolin-4-yl-phosphate]	> 300 °C	significant cytotoxicity		
O=P(O)(O)Oc1cc(-c2ccccc2)nc2ccc(F)cc12 [Compound I-3-b, 6-Fluoro-2-phenylquinolin-4-yl-phosphate]	> 300 °C	significant cytotoxicity		
O=P(O)(O)Oc1cc(-c2ccccc2)nc2ccccc12 [Compound I-4-b, 2-Phenylquinolin-4-yl-phosphate]		significant cytotoxicity		
COc1ccc2nc(-c3cccc(F)c3)cc(OP(=O)(O)O)c2c1 [Compound I-5-b, 6-Methoxy-2(3-′fluorophenyl)-quinolin-4-yl-phosphate]	> 300 °C	significant cytotoxicity		
O=c1cc(-c2ccc[se]2)[nH]c2cc3c(cc12)OCO3 [Compound I-7-d, 2-(2′-Selenophenyl)-6,7-(methylenedioxy)-4-quinolone]				pIC50 [1]: 5.39; pIC50 [2]: 6.05; pIC50 ([3]; Table 1, 48 h, read-out: IC50 HL-60): 6.30; pIC50 [4]: 5.31; pIC50 [5]: 5.09; pIC50 [6]: 5.57
CCN(CC)Cc1ccc2[nH]c(-c3ccccc3)cc(=O)c2c1 [Compound I-8-e, 6-[(Diethylamino)methyl]-2-phenylquinolin-4(1H)-one]			4.82	
CCN(CC)Cc1ccc2[nH]c(-c3ccccc3F)cc(=O)c2c1 [Compound I-9-e, 6-[(Diethylamino)methyl]-2-(2-fluorophenyl)quinolin-4(1H)-one]			5.24	
CCN(CC)Cc1cccc(-c2cc(=O)c3cc(OC)ccc3[nH]2)c1 [Compound I-10-f, 2-{3-[(Diethylamino)methyl]phenyl}-6-methoxyquinolin-4(1H)-one]			< 4.30	
